Data reported in patent US20110200626A1, “IQGAP3 EPITOPE PEPTIDES AND VACCINES CONTAINING THE SAME” (Oncotherapy Science, Inc., priority 2008, published 2011).
Ends that are not written are not given here.

Columns and labels:
peptide-pulsed T2 cells [1] = assay: IFN-gamma ELISPOT assay on CTLs induced with HLA-A*0201 restricted peptides; format: cell-based, human; conditions: against peptide-pulsed target cells compared with control without peptide, listed as IQGAP3-A02-10-1424
peptide-pulsed T2 cells [2] = assay: IFN-gamma ELISA assay on CTL lines (HLA-A*0201); format: cell-based, human; conditions: target cells pulsed with corresponding peptide vs without peptide

SLTAhSLLPL (SLTAHSLLPL; not fully specified (residue 5); printed as SLTAhSLLPL) [SEQ ID NO: 141]
IFN-gamma production of peptide-induced CTLs (ELISPOT) (peptide-pulsed T2 cells [1]): potent IFN-gamma production ability
IFN-gamma production of established CTL lines (ELISA) (peptide-pulsed T2 cells [2]): potent IFN-gamma production
